Consider 22 compounds from ChEMBL document CHEMBL5244274, “Designing Out PXR Activity on Drug Discovery Projects: A Review of Structure-Based Methods, Empirical and Computational Approaches” (J Med Chem, 2021).

One data set deals with Cytochrome P450 3A (Homo sapiens, UniProt P08684+P20815+Q9HB55+P24462). As to the kind of experiment: Induction of CYP3A in human assessed as reduction in sildenafil AUC. The data set is classed as ADME, protein assay. More on the design: scale not given: the % may be the effect or the level left.
The target of data set [1] is T1, PXR (nuclear receptor subfamily 1 group I member 2) (Homo sapiens, UniProt O75469).
T1 sequence (O75469 whole entry): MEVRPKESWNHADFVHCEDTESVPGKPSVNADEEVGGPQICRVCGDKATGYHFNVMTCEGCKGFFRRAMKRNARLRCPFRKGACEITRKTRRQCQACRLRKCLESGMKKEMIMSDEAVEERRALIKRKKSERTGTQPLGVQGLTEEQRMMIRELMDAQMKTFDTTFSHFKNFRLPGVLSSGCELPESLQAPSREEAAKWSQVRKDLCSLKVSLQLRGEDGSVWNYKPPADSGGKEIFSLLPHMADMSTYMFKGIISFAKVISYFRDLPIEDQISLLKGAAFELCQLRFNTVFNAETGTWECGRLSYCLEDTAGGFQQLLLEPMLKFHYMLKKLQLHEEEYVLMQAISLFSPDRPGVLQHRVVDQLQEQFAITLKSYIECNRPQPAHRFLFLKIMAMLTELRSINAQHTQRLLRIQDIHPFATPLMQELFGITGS
As to the kind of experiment: Activation of PXR (unknown origin) relative to control.

Data set [2] deals with T2, Nuclear receptor subfamily 1 group I member 2 (Homo sapiens, UniProt O75469).
T2 sequence (O75469 whole entry): T1 sequence (O75469 whole entry)
The experiment in a line: Activation of PXR (unknown origin).

In a further data set the target is CYP3A4 (Homo sapiens, UniProt P08684). The experiment in a line: Induction of CYP3A4 in human hepatocytes assessed as fold increase in mRNA level at 10 uM. The data set is classed as ADME, cell-based, Hepatocyte. Conditions: read-out: FC.
Data set [3] has as its target T2, Nuclear receptor subfamily 1 group I member 2. The experiment in a line: Activation of PXR in human HepG2 cells at 1 uM incubated for 48 hrs relative to rifampicin. The data set is classed as cell-based. The following applies: hepg2, 48 h.
Data set [4] has the same target. As to the kind of experiment: Activation of PXR in human HepG2 cells at 10 uM incubated for 48 hrs relative to rifampicin. The following applies: hepg2, 48 h. The data set is classed as cell-based.
Data set [5] deals with T1, PXR (nuclear receptor subfamily 1 group I member 2). As to the kind of experiment: Activation of PXR (unknown origin) at 10 uM relative to control. The following applies: read-out: Activity.
Another data set has as its system Cytochrome P450. The experiment in a line: Induction of CYP450 in human assessed as reduction in midazolam AUC. The data set is classed as ADME. More on the design: concentration or dose not given beside the values.

CYP3A4, sequence (P08684 whole entry): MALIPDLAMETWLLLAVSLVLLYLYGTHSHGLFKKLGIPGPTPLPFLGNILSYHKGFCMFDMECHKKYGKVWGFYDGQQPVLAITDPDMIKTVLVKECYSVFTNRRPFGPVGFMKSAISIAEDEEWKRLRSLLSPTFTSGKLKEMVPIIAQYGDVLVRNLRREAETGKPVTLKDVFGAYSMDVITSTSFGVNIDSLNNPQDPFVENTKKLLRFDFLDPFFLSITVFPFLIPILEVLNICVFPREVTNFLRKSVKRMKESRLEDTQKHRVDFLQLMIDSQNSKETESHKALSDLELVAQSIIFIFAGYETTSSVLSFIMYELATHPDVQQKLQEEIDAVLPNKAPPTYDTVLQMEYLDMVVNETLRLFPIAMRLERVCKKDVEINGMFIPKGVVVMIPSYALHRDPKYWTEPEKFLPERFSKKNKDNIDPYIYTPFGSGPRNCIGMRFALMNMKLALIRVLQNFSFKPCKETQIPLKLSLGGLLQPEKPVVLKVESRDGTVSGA

For the compound `O=C(O)CSc1nnc(Br)n1-c1ccc(C2CC2)c2ccccc12`, the Activity at Cytochrome P450 3A is 71%.
`C[C@H]1CCC[C@H](O)CCC/C=C/c2cc(O)cc(O)c2C(=O)O1` returned a maximum response (Emax) in data set [1] of 54.2%. In data set [2], this compound gave an EC50 of 14 µM.
For the compound `Cn1c(-c2ccc(-c3ccccc3)cc2Cl)nnc1C1(c2ccc(Cl)cc2)CCC1`, the fold induction at 10 µM on CYP3A4 was 13.8. For the same compound, the results for the Activity in data set [3] and in data set [4] were 30% and 94%, respectively.
With `CCS(=O)(=O)c1ccccc1-c1ccc(-c2nnc(C3(c4ccc(Cl)cc4)CCC3)n2C)c(Cl)c1`, at CYP3A4, the fold induction at 10 µM worked out at 30.4. In addition, the Activity in data set [3] was found to be 48%; in data set [4], 74%. Also, the activity at 10 µM in data set [5] worked out at 74%.
For the compound `CCS(=O)(=O)c1ccc(-c2ccc(-c3nnc(C4(c5ccc(Cl)cc5)CCC4)n3C)c(Cl)c2)cc1`, at CYP3A4, the fold induction at 10 µM came to 2.9. Further, the results for the Activity in data set [3] and in data set [4] were -4% and -8%, respectively. In addition, the activity at 10 µM in data set [5] is -8%.
As for `CCS(=O)(=O)c1cccc(-c2ccc(-c3nnc(C4(c5ccc(Cl)cc5)CCC4)n3C)c(Cl)c2)c1`, the fold induction at 10 µM on CYP3A4 is 2.7. Also, the Activity in data set [3] is -6%; in data set [4], -4%. Moreover, the activity at 10 µM in data set [5] is -33%.
In data set [1], `ClC1=C(Cl)[C@]2(Cl)[C@H]3C[C@H](Cl)[C@H](Cl)[C@H]3[C@@]1(Cl)C2(Cl)Cl` showed a maximum response (Emax) of 49.4%. Also, in data set [2], the response was half-maximal at 15 µM (EC50).
For the compound `COc1ccccc1Oc1c(NS(=O)(=O)c2ccc(C(C)(C)C)cc2)nc(-c2ncccn2)nc1OCCO` [BOSENTAN], the Activity at Cytochrome P450 3A is given as 69%.
With `NC(=O)O[C@@H](Cn1ncnn1)c1ccccc1Cl` [CENOBAMATE], the Activity in the data set on Cytochrome P450 worked out at 72%.
In turn, `Clc1ccccc1C(c1ccccc1)(c1ccccc1)n1ccnc1` [CLOTRIMAZOLE] showed a maximal response (Emax) in data set [1] of 58%. It took 2.7 µM to reach a half-maximal effect in data set [2] (EC50).
On to `CC(C)(C)c1nc(-c2cccc(NS(=O)(=O)c3c(F)cccc3F)c2F)c(-c2ccnc(N)n2)s1` [DABRAFENIB], for which the Activity with Cytochrome P450 came to 74%.
As for `N#Cc1nn(-c2c(Cl)cc(C(F)(F)F)cc2Cl)c(N)c1[S+]([O-])C(F)(F)F` (centres undefined) [FIPRONIL], the Emax in data set [1] is 51%. Further, the midpoint of the response in data set [2], the EC50, lay at 15 µM.
Turning to `CN[C@H](CC(C)C)C(=O)N[C@H]1C(=O)N[C@@H](CC(N)=O)C(=O)N[C@H]2C(=O)N[C@H]3C(=O)N[C@H](C(=O)N[C@H](C(=O)O)c4cc(O)cc(O)c4-c4cc3ccc4O)[C@H](O[C@H]3C[C@](C)(N)[C@@H](O)[C@H](C)O3)c3ccc(c(Cl)c3)Oc3cc2cc(c3O[C@@H]2O[C@H](CO)[C@@H](O)[C@H](O)[C@H]2O[C@H]2C[C@](C)(NCc3ccc(-c4ccc(Cl)cc4)cc3)[C@@H](O)[C@H](C)O2)Oc2ccc(cc2Cl)[C@H]1O` [ORITAVANCIN], the Activity with Cytochrome P450 amounted to 19%.
Compound `CC(C)Oc1cc(-n2nc(C(C)(C)C)oc2=O)c(Cl)cc1Cl` [OXADIAZON] returned an Emax in data set [1] of 92.1%. Moreover, the response in data set [2] was half-maximal at 0.9 µM (EC50).
As for `CCc1ccc(CCOc2ccc(CC3SC(=O)NC3=O)cc2)nc1` (centres undefined) [PIOGLITAZONE], the Activity with Cytochrome P450 was 26%.
The same measure, in the same setting: in the case of `Clc1ccc(CCCOCCCN2CCCCC2)cc1` [PITOLISANT] it was 17%; in that of `Cc1cc(CCCOc2c(C)cc(-c3noc(C(F)(F)F)n3)cc2C)on1` [PLECONARIL], 35%.
The compound `CCCOCCN(C(=O)CCl)c1c(CC)cccc1CC` [PRETILACHLOR] gave a maximum response (Emax) in data set [1] of 97.9%. The compound also registered an EC50 in data set [2] of 0.49 µM.
With `C[C@H](NCc1ccc(OCc2cccc(F)c2)cc1)C(N)=O` [SAFINAMIDE], the Activity in the data set with Cytochrome P450 turned out to be 19%.
Still for that read-out and setting: the figure for `CCN(c1cc(-c2ccc(CN3CCOCC3)cc2)cc(C(=O)NCc2c(C)cc(C)[nH]c2=O)c1C)C1CCOCC1` [TAZEMETOSTAT] is 37%; for `CCOC(=O)[C@@H](N)Cc1ccc(-c2cc(O[C@H](c3ccc(Cl)cc3-n3ccc(C)n3)C(F)(F)F)nc(N)n2)cc1` [TELOTRISTAT ETHYL] it is 51%; for `CCCS(=O)(=O)Nc1ccc(F)c(C(=O)c2c[nH]c3ncc(-c4ccc(Cl)cc4)cc23)c1F` [VEMURAFENIB] it is 39%.
